By inhibition is commonly meant the change of the read-out against control, counted positive when it falls. A high value points to a strong effect. A word on the IC50: it is the midpoint of a concentration-inhibition curve. Low readings indicate greater potency in that assay, high ones weaker potency in that assay.

In article PMC5751305, “In Silico Screening and In Vitro Activity Measurement of Javamide Analogues as Potential p38 MAPK Inhibitors” (International Journal of Molecular Sciences, 2017) one finds inhibition and IC50 data, which are given here for three molecules.

What all share (type): biochemical
The target of test [1] is T1, p38 α (Homo sapiens, UniProt Q16539).
T1 construct: gene MAPK14
T1 sequence (Q16539 2-360): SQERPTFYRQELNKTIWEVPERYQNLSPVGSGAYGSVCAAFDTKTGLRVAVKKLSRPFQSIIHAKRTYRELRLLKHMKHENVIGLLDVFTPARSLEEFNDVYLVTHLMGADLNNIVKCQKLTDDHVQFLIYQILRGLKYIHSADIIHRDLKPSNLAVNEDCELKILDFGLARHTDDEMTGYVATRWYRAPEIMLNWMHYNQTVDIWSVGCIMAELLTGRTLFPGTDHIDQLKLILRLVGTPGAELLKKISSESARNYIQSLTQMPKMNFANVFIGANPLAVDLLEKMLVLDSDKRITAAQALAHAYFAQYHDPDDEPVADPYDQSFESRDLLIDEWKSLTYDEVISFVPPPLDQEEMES
Put plainly: ADP-Glo kinase assay (Promega CMGC-1), % inhibition at […]. (In general: In ADP-Glo the light output rises with the ADP produced.)

Test [2] addresses T1, p38 α. Put plainly: ADP-Glo kinase assay (Promega CMGC-1 kinase selectivity profiling system).
Test [3] deals with T1, p38 α. Kind of test: ADP-Glo kinase assay (Promega CMGC-1 kinase selectivity profiling system), dose response […].

Structures are written as SMILES.

On to `O=C(/C=C/c1ccc(O)c(O)c1)N[C@@H](Cc1c[nH]c2ccccc12)C(=O)O` [Javamide-II, javamide-II], for which the inhibition at 5 µM against p38 α [1] stood at 31.5%. In the case of `COC(=O)[C@H](Cc1c[nH]c2ccccc12)NC(=O)/C=C/c1ccc(O)c(O)c1` [Javamide-II-methyl, Methyl (E)-(3-(3,4-dihydroxyphenyl)acryloyl) tryptophanate], the IC50 against p38 α [2] was found to be 12 µM.

Molecule `CCOC(=O)[C@H](Cc1c[nH]c2ccccc12)NC(=O)/C=C/c1ccc(O)c(O)c1` [Javamide-II-ethyl, javamide-II-O-ethyl ester] showed an IC50 against p38 α [3] of 9.9 µM.
